Data taken from patent US20070253994A1, “Intraspinal Drug Delivery Methods and Devices To Alleviate Chronic Pelvic Pain” (Medtronic, Inc., priority 2006, published 2007).
Entries after “also recorded” stand apart in the source; their conditions may differ. Where a name gives a salt, the structure may show the parent alone.

Experiments:
[1] = test system: micturition reflex of female rats; assay: micturition reflex (cystometrogram) of female rats in the interstitial cystitis (IC) model of visceral pain, acetic acid bladder infusion; assay type: in vivo, rat; settings: for frequency of acetic-acid-induced contractions compared with rate during saline infusion, both doses: both doses of Table 1
[2] = test system: patients with chronic nonbacterial prostatitis; settings: typically orally administered; cited from earlier work
[3] = female rats, acetic acid infusion, intrathecal, doses of Table 1
[4] = urethane-anesthetized female rats, 0.5% acetic acid bladder infusion, intrathecal, two ascending doses (Table 1)

## NCC1(CC(=O)O)CCCCC1 [Gabapentin]
[1]; rat, in vivo
  amplitude of bladder contractions: Neither of these drugs suppressed the amplitude of bladder contractions
  frequency of acetic-acid-induced bladder contractions compared with frequency during saline infusion, higher dose: reduced the frequency of acetic-acid-induced bladder contractions to a level comparable to the normal frequency of contraction seen with saline infusion
  micturition reflex frequency: suppressed micturition reflex frequency in a dose-dependent fashion
  micturition reflex frequency at the higher dose: effective at reducing the reflex frequency
  micturition reflex frequency at the lower dose: not at the lower dose

## O=C(c1ccccc1)c1ccc2n1CCC2C(=O)O (stereo not drawn) [Ketorolac, Ketorolac tris]
[1]; 10 rats, intrathecal, lower dose (100 μg per Table 1)
  rats exhibiting a lower reflex frequency, lower dose: 8 of 10
[1]; [3]
  amplitude of bladder contractions: Neither baclofen nor ketorolac reduced the amplitude of bladder contraction
[1]; female rats, intrathecal
  frequency of acetic-acid-induced contractions compared with rate during saline infusion, both doses: reduced the acetic-acid-induced contraction frequency in a dose-dependent manner without suppressing it below the normal rate of contraction observed with saline infusion
[1]; ten rats tested, intrathecal, high dose (500 μg per Table 1)
  rats in which reflex frequency was reduced, high dose: each of the ten rats tested
[1]; [4]
  micturition reflex frequency: suppressed micturition reflex frequency in a dose-dependent fashion

## NCC(CC(=O)O)c1ccc(Cl)cc1 (stereo not drawn) [Baclofen]
[1]; [3]
  amplitude of bladder contractions: Neither baclofen nor ketorolac reduced the amplitude of bladder contraction
[1]; female rats, intrathecal
  frequency of acetic-acid-induced contractions compared with rate during saline infusion, both doses: reduced the acetic-acid-induced contraction frequency in a dose-dependent manner without suppressing it below the normal rate of contraction observed with saline infusion
[1]; [4]
  micturition reflex frequency: statistically significant only at the higher dose
[1]; urethane-anesthetized female rats, 0.5% acetic acid bladder infusion, intrathecal, two ascending doses (Table 1), listed as baclofen
  micturition reflex frequency: suppressed micturition reflex frequency in a dose-dependent fashion

## CNCCCN1c2ccccc2CCc2ccccc21 [Desipramine, Desipramine HCl]
[1]; [3]
  amplitude of bladder contractions: Neither of these drugs suppressed the amplitude of bladder contractions
[1]; female rats, acetic acid infusion, intrathecal, higher dose of Table 1
  micturition reflex frequency at the higher dose: effective at reducing the reflex frequency
[1]; female rats, acetic acid infusion, intrathecal, lower dose of Table 1
  micturition reflex frequency at the lower dose: not at the lower dose
[1]; female rats, intrathecal, higher dose of Table 1
  frequency of acetic-acid-induced bladder contractions compared with frequency during saline infusion, higher dose: reduced the frequency of acetic-acid-induced bladder contractions to a level comparable to the normal frequency of contraction seen with saline infusion
[1]; [4]
  micturition reflex frequency: suppressed micturition reflex frequency in a dose-dependent fashion

## Clc1cccc(Cl)c1N=C1NCCN1 [Clonidine, Clonidine HCl]
[1]; [4]
  micturition reflex frequency: no measurable effect

## CCCCN1CCCCC1C(=O)Nc1c(C)cccc1C (stereo not drawn) [Bupivacaine, Bupivacaine HCl]
[1]; [3]
  amplitude of bladder contractions: no effect on the amplitude of contraction
[1]; female rats, intrathecal
  frequency of acetic-acid-induced contractions compared with rate during saline infusion, both doses: reduced the frequency of acetic-acid-induced contractions below the rate observed during saline infusion
[1]; urethane-anesthetized female rats, 0.5% acetic acid bladder infusion, intrathecal, two ascending doses (Table 1), HCl
  micturition reflex frequency: suppressed micturition reflex frequency in a dose-dependent fashion; also recorded: appeared to suppress the micturition frequency at both doses

## pentosan polysulfate
[2]
  patients for whom treatment proved successful: approximately 40%
